Read-outs that look alike come from different tables or passages of the source.

The conditions of data set [1]: background statement; cited from earlier work.
A further data set in a line: SOD-like activity. It is filed as biochemical. As for the experimental part: (§1) Electrochemistry, electrospray-ionization mass spectrometry (ESI-MS), UV-visible spectroscopy and SOD-like activity were carried out as previously described.^29, 32. All quantum chemistry calculations have been performed at the M06-2X/6-311++G(2d,p)//M06-2X/6-31+G(d) DFT level^33-38 using the Gaussian 09 software.^39 All frequency calculations were carried out at […] and used to characterize minima and transition states. The solvent effect has been taken into account using the CPCM continuum solvation model^40 for N,N-dimethylformamide (DMF). The free energies of reactants, transition states, and products have been obtained from the ideal gas partition functions for the structures optimized in solution^40 and corrected to include the compression work of the gas^41 (or liberation free energy^42) to standard 1 mol L^−1 concentration. The coulombic stabilization energy due to the formation of ionic pairs in DMF has also been included in the final results by approximating each ion as a sphere, whose volume was considered the same as that of the solute cavity;^43 the distance between cation and anion in the ionic pair was taken as the sum of the two sphere radii.

Data set [2] is described as follows: electrochemistry, Mn(III)/Mn(II) reduction potential. It is filed as physicochemical. As for the experimental part: as §1
Data set [3] is described as follows: rat Comet assay (genotoxicity). To be noted: pre-clinical studies.
Data set [4] is described as follows: lipophilicity of Mn porphyrin complex.
Data set [5] can be described thus: toxicity compared with analogous alkyl-chain Mn porphyrins.
In the next data set the test system is cells. To be noted: compared with ethyl analogue, background statement; cited from earlier work.

With `CC[n+]1ccccc1-c1c2nc(c(-c3cccc[n+]3CC)c3ccc([n-]3)c(-c3cccc[n+]3CC)c3nc(c(-c4cccc[n+]4CC)c4ccc1[n-]4)C=C3)C=C2.[Mn+3]` [MnTE-2-PyP^5+, Mn(III) meso-tetrakis-(N-ethylpyridinium-2-yl)porphyrins], the lipophilicity entry in data set [1] is “low lipophilicity”.

On to `CCCCOCC[n+]1ccccc1C1=C2C=CC3=[N+]2[Mn]24[n]5c1ccc5C(c1cccc[n+]1CCOCCCC)=C1C=CC(=[N+]12)C(c1cccc[n+]1CCOCCCC)=c1ccc([n]14)=C3c1cccc[n+]1CCOCCCC` [MnTnBuOE-2-PyP^5+, Mn(III) meso-tetrakis-(N-n-butoxyethylpyridinium-2-yl)porphyrin], for which, in the data set “SOD-like activity”, the SOD-like activity result is “high”. Moreover, the “Mn(III)/Mn(II) reduction potential (E1/2)” value in data set [2] is on record as “high”. The “genotoxicity in a rat Comet assay” value in data set [3] is “lack of genotoxicity”. For the same compound, the lipophilicity result in data set [4] is “lipophilic”. Further, the toxicity result in data set [5] is “low toxicity”. Moreover, the “fold less toxic than analogous ortho alkyl MnP^5+” value in data set [5] (relative to analogous alkyl chains) is recorded as 4-5 fold.

Turning to `CCCCCC[n+]1ccccc1-c1c2nc(c(-c3cccc[n+]3CCCCCC)c3ccc([n-]3)c(-c3cccc[n+]3CCCCCC)c3nc(c(-c4cccc[n+]4CCCCCC)c4ccc1[n-]4)C=C3)C=C2.[Mn+3]` [MnTnHex-2-PyP^5+, Mn(III) meso-tetrakis-(N-n-hexylpyridinium-2-yl)porphyrin], the accumulation in cells result in the data set with cells is “higher levels than its ethyl analogue”.
